Measurements reported in paper PMC8286840, “Identifying SARS-CoV-2 antiviral compounds by screening for small molecule inhibitors of Nsp3 papain-like protease” (Biochemical Journal, 2021).
Structures can show the parent of a compound that is named as a salt. Where two headings read alike, the source gives them in different places.

Experiments:
[1] = target: T1, SARS-CoV-2 PLpro (nsp3 1564–1878) (Severe acute respiratory syndrome coronavirus 2, UniProt P0DTD1); assay: biochemical; parameters: FRET-quenched peptide (Pro3) cleavage by PLpro, 10 min pre-incubation, slope over 20 min, normalised to no-compound control; conditions: high concentration screen, read-out: % of control remaining
[2] = target: T1, SARS-CoV-2 PLpro (nsp3 1564–1878); assay: biochemical; parameters: FRET-quenched peptide (Pro3) cleavage by PLpro, 10 min pre-incubation, slope over 20 min, normalised to no-compound control; conditions: low concentration screen, read-out: % of control remaining

CCCc1nn(C)c2c(=O)[nH]c(-c3cc(S(=O)(=O)N4CCN(C)CC4)ccc3OCC)nc12 [Sildenafil citrate]
remaining activity at 3.75 µM ([1]; Well no.=4821): 94.2% | remaining activity at 1.25 µM ([2]; Well no.=4821): 94.7%

CCCc1nn(C)c2c(=O)[nH]c(-c3cc(S(=O)(=O)N4CCN(C)CC4)ccc3OCC)nc12 [Sildenafil]
remaining activity at 3.75 µM ([1]; Well no.=1836): 96.8% | remaining activity at 1.25 µM ([2]; Well no.=1836): 99.2%

C[C@H](Cc1cc2c(c(C(N)=O)c1)N(CCCO)CC2)NCCOc1ccccc1OCC(F)(F)F [Silodosin]
remaining activity at 3.75 µM ([1]; Well no.=6759): 102% | remaining activity at 1.25 µM ([2]; Well no.=6759): 101%

COC(=O)[C@H]1[C@@H](O)[C@@]2(O)c3c(OC)cc(O[C@@H]4O[C@@H]([C@H](O)CO)CO[C@H]4OC)cc3O[C@@]2(c2ccc(OC)cc2)[C@@H]1c1ccccc1 [Silvestrol]
remaining activity at 3.75 µM ([1]; Well no.=7120): 101% | remaining activity at 1.25 µM ([2]; Well no.=7120): 103%

COc1cc([C@H]2Oc3cc([C@H]4Oc5cc(O)cc(O)c5C(=O)[C@@H]4O)ccc3O[C@@H]2CO)ccc1O [Silybine]
remaining activity at 3.75 µM ([1]; Well no.=3753): 104% | remaining activity at 1.25 µM ([2]; Well no.=3753): 101%

CCC(C)(C)C(=O)O[C@H]1C[C@@H](C)C=C2C=C[C@H](C)[C@H](CC[C@@H]3C[C@@H](O)CC(=O)O3)[C@H]21 [Simvastatin]
remaining activity at 3.75 µM ([1]; Well no.=1620): 107% | remaining activity at 1.25 µM ([2]; Well no.=1620): 107%

COC1=C[C@@H]2[C@@H]3Cc4ccc(OC)c(O)c4[C@]2(CCN3C)CC1=O [Sinomenine]
remaining activity at 3.75 µM ([1]; Well no.=3757): 98.8% | remaining activity at 1.25 µM ([2]; Well no.=3757): 97.3%

CCc1cc(/C(C)=N/OCc2ccc(C3CCCCC3)c(C(F)(F)F)c2)ccc1CN1CC(C(=O)O)C1 [Siponimod]
remaining activity at 3.75 µM ([1]; Well no.=6669): 93.3% | remaining activity at 1.25 µM ([2]; Well no.=6669): 97.7%

COc1ncc(-c2nc3c(n2C(C)C)[C@H](c2ccc(Cl)cc2)N(c2cc(Cl)cn(C)c2=O)C3=O)c(OC)n1 [Siremadlin]
remaining activity at 3.75 µM ([1]; Well no.=6788): 89.6% | remaining activity at 1.25 µM ([2]; Well no.=6788): 97.9%

CC(NC(=O)c1ccccc1/N=C/c1c(O)ccc2ccccc12)c1ccccc1 (stereo not shown) [Sirtinol]
remaining activity at 3.75 µM ([1]; Well no.=4783): 99.9% | remaining activity at 1.25 µM ([2]; Well no.=4783): 103%

N[C@@H]1CN(c2c(F)cc3c(=O)c(C(=O)O)cn([C@@H]4C[C@@H]4F)c3c2Cl)CC12CC2 [Sitafloxacin hydrate]
remaining activity at 3.75 µM ([1]; Well no.=4770): 93.3% | remaining activity at 1.25 µM ([2]; Well no.=4770): 97.9%

N[C@@H](CC(=O)N1CCn2c(nnc2C(F)(F)F)C1)Cc1cc(F)c(F)cc1F [Sitagliptin phosphate monohydrate]
remaining activity at 3.75 µM ([1]; Well no.=4644): 102% | remaining activity at 1.25 µM ([2]; Well no.=4644): 105%

Cc1cc2c(cc1CC(=O)c1sccc1S(=O)(=O)Nc1onc(C)c1Cl)OCO2 [Sitaxentan sodium (TBC-11251)]
remaining activity at 3.75 µM ([1]; Well no.=4887): 98.3% | remaining activity at 1.25 µM ([2]; Well no.=4887): 95.6%

Cc1cc2c(cc1CC(=O)c1sccc1S(=O)(=O)Nc1onc(C)c1Cl)OCO2 [Sitaxsentan (sodium)]
remaining activity at 3.75 µM ([1]; Well no.=8533): 106% | remaining activity at 1.25 µM ([2]; Well no.=8533): 105%

COc1ccc2c(OC)c3ccoc3nc2c1OC [Skimmianine]
remaining activity at 3.75 µM ([1]; Well no.=3201): 109% | remaining activity at 1.25 µM ([2]; Well no.=3201): 112%

Nc1ccc(C(=O)O)c(O)c1 [Sodium 4-Aminosalicylate]
remaining activity at 3.75 µM ([1]; Well no.=4974): 95.6% | remaining activity at 1.25 µM ([2]; Well no.=4974): 101%

O=C(O)C(O)Cc1ccc(O)c(O)c1 (stereo not shown) [Sodium Danshensu]
remaining activity at 3.75 µM ([1]; Well no.=4868): 100% | remaining activity at 1.25 µM ([2]; Well no.=4868): 100%

NC(=O)C(=O)O [Sodium Oxamate]
remaining activity at 3.75 µM ([1]; Well no.=944): 96.9% | remaining activity at 1.25 µM ([2]; Well no.=944): 97.2%

O=C(O)Cc1ccccc1 [Sodium Phenylacetate]
remaining activity at 3.75 µM ([1]; Well no.=1884): 97.8% | remaining activity at 1.25 µM ([2]; Well no.=1884): 94.7%

O=C(O)CCCc1ccccc1 [Sodium Phenylbutyrate]
remaining activity at 3.75 µM ([1]; Well no.=1582): 103% | remaining activity at 1.25 µM ([2]; Well no.=1582): 106%

O=S(=O)(O)Oc1ccc(C(c2ccc(OS(=O)(=O)O)cc2)c2ccccn2)cc1 [Sodium Picosulfate]
remaining activity at 3.75 µM ([1]; Well no.=4654): 99.8% | remaining activity at 1.25 µM ([2]; Well no.=4654): 103%

CCCC(=O)O [Sodium butyrate]
remaining activity at 3.75 µM ([1]; Well no.=4674): 90% | remaining activity at 1.25 µM ([2]; Well no.=4674): 94.4%

O=C(O)C(Cl)Cl [Sodium dichloroacetate (DCA)]
remaining activity at 3.75 µM ([1]; Well no.=8490): 96.1% | remaining activity at 1.25 µM ([2]; Well no.=8490): 96.6%

O=C(O)c1ccccc1O [Sodium salicylate]
remaining activity at 3.75 µM ([1]; Well no.=4971): 97.2% | remaining activity at 1.25 µM ([2]; Well no.=4971): 98.6%

CNc1cccc(NC(=O)N[C@@H]2N=C(c3ccccn3)c3ccccc3N(CC(=O)C(C)(C)C)C2=O)c1 [Sograzepide]
remaining activity at 3.75 µM ([1]; Well no.=8322): 93% | remaining activity at 1.25 µM ([2]; Well no.=8322): 94.5%

CC(C)=CCC/C(C)=C/CC/C(C)=C/CC/C(C)=C/CC/C(C)=C/CC/C(C)=C/CC/C(C)=C/CC/C(C)=C/CC/C(C)=C/CO [Solanesol]
remaining activity at 3.75 µM ([1]; Well no.=3759): 96.5% | remaining activity at 1.25 µM ([2]; Well no.=3759): 96.8%

C[C@@H]1CC[C@@]2(NC1)O[C@H]1C[C@H]3[C@@H]4CC=C5C[C@@H](O)CC[C@]5(C)[C@H]4CC[C@]3(C)[C@H]1[C@@H]2C [Solasodine]
remaining activity at 3.75 µM ([1]; Well no.=3467): 95.3% | remaining activity at 1.25 µM ([2]; Well no.=3467): 97.1%

CC[C@H]1OC(=O)[C@@](C)(F)C(=O)[C@H](C)[C@@H](O[C@@H]2O[C@H](C)C[C@H](N(C)C)[C@H]2O)[C@](C)(OC)C[C@@H](C)C(=O)[C@H](C)[C@H]2N(CCCCn3cc(-c4cccc(N)c4)nn3)C(=O)O[C@]12C [Solithromycin]
remaining activity at 3.75 µM ([1]; Well no.=7990): 95.7% | remaining activity at 1.25 µM ([2]; Well no.=7990): 97.5%

C=C1[C@H]2C[C@@]3([C@@H]1O)[C@@H](CC2=O)[C@]12[C@@H]4C[C@H]3[C@H]1N(CC)C[C@]4(C)CC[C@@H]2O [Songorine]
remaining activity at 3.75 µM ([1]; Well no.=3203): 102% | remaining activity at 1.25 µM ([2]; Well no.=3203): 102%

O=C1C=CC[C@@H]2[C@H]3CCCN4CCC[C@@H](CN12)[C@@H]34 [Sophocarpine]
remaining activity at 3.75 µM ([1]; Well no.=4870): 101% | remaining activity at 1.25 µM ([2]; Well no.=4870): 99.5%

CNC(=O)c1cc(Oc2ccc(NC(=O)Nc3ccc(Cl)c(C(F)(F)F)c3)cc2)ccn1 [Sorafenib]
remaining activity at 3.75 µM ([1]; Well no.=2941): 97.8% | remaining activity at 1.25 µM ([2]; Well no.=2941): 101%

OC[C@@H](O)[C@@H](O)[C@H](O)[C@@H](O)CO [Sorbitol]
remaining activity at 3.75 µM ([1]; Well no.=8244): 99.8% | remaining activity at 1.25 µM ([2]; Well no.=8244): 100%

CCOc1ccc(Cc2cc([C@@H]3O[C@H](SC)[C@@H](O)[C@H](O)[C@H]3O)ccc2Cl)cc1 [Sotagliflozin (LX4211)]
remaining activity at 3.75 µM ([1]; Well no.=8820): 95.6% | remaining activity at 1.25 µM ([2]; Well no.=8820): 97.4%

CC(C)NCC(O)c1ccc(NS(C)(=O)=O)cc1 (stereo not shown) [Sotalol (hydrochloride)]
remaining activity at 3.75 µM ([1]; Well no.=6363): 98.6% | remaining activity at 1.25 µM ([2]; Well no.=6363): 100%

CC(C)NCC(O)c1ccc(NS(C)(=O)=O)cc1 (stereo not shown) [Sotalol.HCl]
remaining activity at 3.75 µM ([1]; Well no.=1785): 102% | remaining activity at 1.25 µM ([2]; Well no.=1785): 103%
